Measured values: patent publication US20130123355A1, “Fatty acids and metal ions compositions and uses thereof” (priority 2011, published 2013)

Assays:
[1] = intravenous infusion for 5 days; cited from earlier work
Sprague-Dawley rats = assay: Forced Swim Test; format: in vivo; conditions: diet, about 15.5 mg/Kg/day elemental lithium, compared with the fatty acid alone or lithium carbonate
Excerpt: Sprague-Dawley rats are fed diet supplemented with Mg-DHA, Mg Citrate, or DHA. […] Various established parameters of antidepressant activity including reduced immobility time, increased swimming, and increased climbing behavior are quantitated to assess the antidepressant activity.
Sprague-Dawley rats are fed diet supplemented with Mg-DHA-LysoPC, Mg Citrate, or DHA-lysoPC. […] Various established parameters of antidepressant activity including reduced immobility time, increased swimming, and increased climbing behavior are quantitated to assess the antidepressant activity.
Sprague-Dawley rats are fed diet supplemented with Mg-EPA, Mg Citrate, or EPA. […] Various established parameters of antidepressant activity including reduced immobility time, increased swimming, and increased climbing behavior are quantitated to assess the antidepressant activity.
(§1) Sprague-Dawley rats are fed diet supplemented with Zn-DHA, Zinc gluconate, or DHA. On Zn-DHA or Zinc gluconate supplemented diet, rats consume about 1 mg/kg body weight/day of elemental zinc, on a feeding schedule so as to maintain 85% of its free-feeding weight. […] Various established parameters of antidepressant activity including reduced immobility time, increased swimming, and increased climbing behavior are quantitated to assess the antidepressant activity.
as §1, with “Zn-DHA-lysoPC, zinc” for “Zn-DHA, Zinc”, “Zn-DHA-lysoPC” for “Zn-DHA”, “zinc” for “Zinc”
as §1, with “Zn-EPA, zinc” for “Zn-DHA, Zinc”, “EPA.” for “DHA.”, “Zn-EPA” for “Zn-DHA”, “zinc” for “Zinc”
Sprague-Dawley rats are fed diet supplemented with Li-DHA, lithium carbonate, or DHA. […] Various established parameters of antidepressant activity including reduced immobility time, increased swimming, and increased climbing behavior are quantitated to assess the antidepressant activity.
Sprague-Dawley rats are fed diet supplemented with Li-DHA-lysoPC, lithium carbonate, or DHA. […] Various established parameters of antidepressant activity including reduced immobility time, increased swimming, and increased climbing behavior are quantitated to assess the antidepressant activity.
Sprague-Dawley rats are fed diet supplemented with Li-EPA, lithium carbonate, or EPA. […] Various established parameters of antidepressant activity including reduced immobility time, increased swimming, and increased climbing behavior are quantitated to assess the antidepressant activity.

[2] = Li levels in cerebrospinal fluid of rats fed Li compositions; format: in vivo, Sprague-Dawley rats; conditions: oral gavage, about 20 mg elemental Li per Kg per day for 3 weeks, compared with lithium carbonate
Experimental: Sprague-Dawley rats are fed various […] compositions by oral gavage so as to provide about 20 mg of elemental Li per Kg per day for 3 weeks. The lithium compositions include Li-DHA, Li-DHA-LysoPC and Li-EPA. Control rats were administered equivalent molar amount of Lithium carbonate. Cerebrospinal fluid is collected at the end of the treatment, and lithium is measured by atomic absorption spectroscopy.

C57BL/6J mice [3] = assay: d-amphetamine induced hyperlocomotion, supplemented diet; format: in vivo; conditions: about 15.5 mg/Kg/day elemental lithium, 0.5 mg/Kg d-amphetamine on days 0, 7, 14, 21, compared with the fatty acid alone or lithium chloride
Experimental: C57BL/6J mice are fed diet supplemented with Li-DHA, lithium chloride, or DHA. On Li-DHA or lithium chloride supplemented diet, mice consume, on an average, about 15.5 mg/Kg/day of elemental lithium, on a feeding schedule so as to maintain 85% of its free-feeding weight. […] On 0, 7, 14, and 21 days of starting the supplement diet, mice are injected with 0.5 mg/Kg d-amphetamine and observed for hyperlocomotion using automated video recording device.
C57BL/6J mice are fed diet supplemented with Li-DHA-lysoPC, lithium chloride, or DHA-lysoPC. On Li-DHA-lysoPC or lithium chloride supplemented diet, mice consume, on an average, about 15.5 mg/Kg/day of elemental lithium, on a feeding schedule so as to maintain 85% of its free-feeding weight. […] On 0, 7, 14, and 21 days of starting the supplement diet, mice are injected with 0.5 mg/Kg d-amphetamine and observed for hyperlocomotion using automated video recording device.
C57BL/6J mice are fed diet supplemented with Li-EPA, lithium chloride, or EPA. On Li-EPA or lithium chloride supplemented diet, mice consume, on an average, about 15.5 mg/Kg/day of elemental lithium, on a feeding schedule so as to maintain 85% of its free-feeding weight. […] On 0, 7, 14, and 21 days of starting the supplement diet, mice are injected with 0.5 mg/Kg d-amphetamine and observed for hyperlocomotion using automated video recording device.

[4] = system: Patients presenting symptoms of bipolar disorder; assay: Hamilton Depression Rating scale, Beck Depression Inventory and Young Mania Rating Scale in bipolar disorder; format: in vivo, human; conditions: 113 mg elemental Li 3 to 4 times a day for two weeks, with standard of care, compared with lithium carbonate or the fatty acid alone
[5] = system: Patients presenting symptoms of depression; assay: Hamilton Depression Rating scale and Beck Depression Inventory in depression; format: in vivo, human; conditions: 113 mg elemental Li 3 to 4 times a day for two weeks, with standard of care, compared with lithium carbonate or the fatty acid alone
Experimental: Patients presenting symptoms of depression, in addition to being provided standard of care for depression, are prescribed Mg-DHA or Mg Citrate capsules formulated to provide 150 mg of elemental magnesium, or DHA capsules for two weeks when recovery from depression is assessed.
Patients presenting symptoms of depression, in addition to being provided standard of care for depression, are prescribed Mg-DHA-LysoPC or Mg Citrate capsules formulated to provide 150 mg of elemental magnesium, or DHA-LysoPC capsules for two weeks when recovery from depression is assessed.
Patients presenting symptoms of depression, in addition to being provided standard of care for depression, are prescribed Mg-EPA or Mg Citrate capsules formulated to provide 150 mg of elemental magnesium, or EPA capsules for two weeks when recovery from depression is assessed.
(§2) Patients presenting symptoms of depression, in addition to being provided standard of care for depression, are prescribed Zn-DHA or zinc gluconate capsules formulated to provide a daily dosage of 30 mg of elemental zinc, or DHA capsules for two weeks when recovery from depression is assessed.
as §2, with “Zn-DHA-LysoPC” for “Zn-DHA”, “DHA-LysoPC” for “DHA”
Patients presenting symptoms of depression, in addition to being provided standard of care for depression, are prescribed Zn-EPA or zinc gluconate capsules that provide a daily dosage of 30 mg of elemental Zn, or EPA capsules for two weeks when recovery from depression is assessed.

C57BL/6J mice [6] = assay: d-amphetamine induced hyperlocomotion, acute injection; format: in vivo; conditions: injected 15.5 mg/Kg elemental lithium fifteen minutes after d-amphetamine (0.5 mg/Kg), observed 120 minutes, compared with the fatty acid alone or lithium chloride
Experimental: C57BL/6J mice are injected with d-amphetamine (0.5 mg/Kg) and increased locomotion is measured. Fifteen minutes later, Li-DHA, or lithium chloride dose is injected to deliver 15.5 mg/Kg elemental lithium. […] Subsequently, the mice are observed for hyperlocomotion for the next 120 minutes using automated video recording device.
C57BL/6J mice are injected with d-amphetamine (0.5 mg/Kg) and increased locomotion is measured. Fifteen minutes later, Li-DHA-lysoPC, or lithium chloride dose is injected to deliver 15.5 mg/Kg elemental lithium. […] Subsequently, the mice are observed for hyperlocomotion for the next 120 minutes using automated video recording device.
C57BL/6J mice are injected with d-amphetamine (0.5 mg/Kg) and increased locomotion is measured. Fifteen minutes later, Li-EPA, or lithium chloride dose is injected to deliver 15.5 mg/Kg elemental lithium. […] Subsequently, the mice are observed for hyperlocomotion for the next 120 minutes using automated video recording device.

Q: For `O=S(=O)([O-])[O-].[Mg+2]` [magnesium sulfate], which “Mg levels in the brain” value [1] is on record?
A: failed to increase

Q: And the “increase of blood levels of magnesium” value [1]?
A: 3 fold

Q: Which immobility time (Sprague-Dawley rats) does the source give for `CC/C=C\C/C=C\C/C=C\C/C=C\C/C=C\C/C=C\CCC(=O)[O-].[Li+]` [Li-DHA] here?
A: reduction

Q: What about the “swimming and climbing behavior” value (Sprague-Dawley rats) of the same molecule?
A: significant increase

Q: What about the “CSF levels of lithium” value [2] of the same molecule?
A: higher

Q: And the induced hyperlocomotion (C57BL/6J mice [3])?
A: lower levels

Q: What about the “Hamilton Depression Rating scale, Beck Depression Inventory and Young Mania Rating Scale scores” value [4] of the same molecule?
A: statistically significant improvement

Q: And the “Hamilton Depression Rating scale and Beck Depression Inventory scores” value [5]?
A: statistically significant improvement

Q: And the induced hyperlocomotion (C57BL/6J mice [6])?
A: lower levels

Q: Which results are given for `CC/C=C\C/C=C\C/C=C\C/C=C\C/C=C\CCCC(=O)[O-].[Li+]` [Li-EPA]?
A: immobility time (Sprague-Dawley rats): reduction; swimming and climbing behavior (Sprague-Dawley rats): significant increase; CSF levels of lithium [2]: higher; induced hyperlocomotion (C57BL/6J mice [3]): lower levels; Hamilton Depression Rating scale, Beck Depression Inventory and Young Mania Rating Scale scores [4]: statistically significant improvement; Hamilton Depression Rating scale and Beck Depression Inventory scores [5]: statistically significant improvement; induced hyperlocomotion (C57BL/6J mice [6]): lower levels
